According to patent publication US20110245288A1 (priority 2010, published 2011):

Experiments:
[1] = human
[2] = human; remark: listed apart in the source

| Compound | Cumulative permeation [1] | Flux [1] | Lag time [1] | Skin Disposition [1] | flux enhancement [1] | fold increase in cumulative permeation as compared to BUP [1] | Plasma hydrolysis (k) [2] |
| --- | --- | --- | --- | --- | --- | --- | --- |
| CO[C@]12CC[C@@]3(C[C@@H]1[C@](C)(O)C(C)(C)C)[C@H]1Cc4ccc(O)c5c4[C@@]3(CCN1CC1CC1)[C@H]2O5 [BUP, buprenorphine, reference compound] | 6.32 ± 2.16 nmol | 0.44 ± 0.14 nmol/cm^2/h | 9.2 ± 2.0 h | 0.62 ± 0.34 µmol/g |  |  |  |
| CCOCCOCCOC(=O)Oc1ccc2c3c1O[C@H]1[C@@]4(OC)CC[C@@]5(C[C@@H]4[C@](C)(O)C(C)(C)C)[C@@H](C2)N(CC2CC2)CC[C@]315 [Formula I, Buprenorphine 3,6-dioxaoctyl carbonate] | 17.5 ± 4.0 nmol | 1.24 ± 0.23 nmol/cm^2/h | 7.7 ± 1.7 h | 1.0 ± 0.4 µmol/g | *Formula I (3) (key: *Indicates a flux enhancement greater than 2.) | ≥ 2.75 fold | -0.113 h⁻¹ |
| CCOCCOCCOCCOCCOC(=O)Oc1ccc2c3c1O[C@H]1[C@@]4(OC)CC[C@@]5(C[C@@H]4[C@](C)(O)C(C)(C)C)[C@@H](C2)N(CC2CC2)CC[C@]315 [Formula II, Buprenorphine 3,6,9,12-tetraoxatetradecanyl carbonate] | 4.5 ± 1.9 nmol | 0.31 ± 0.26 nmol/cm^2/h | 7.4 ± 4.7 h | 4.5 ± 1.9 µmol/g |  |  | -1.12 h⁻¹ |
| CCOCCOCCOCCOC(=O)Oc1ccc2c3c1O[C@H]1[C@@]4(OC)CC[C@@]5(C[C@@H]4[C@](C)(O)C(C)(C)C)[C@@H](C2)N(CC2CC2)CC[C@]315 [Formula III, Buprenorphine 3,6,9-trioxaundecyl carbonate] | 23.9 ± 6.7 nmol | 1.74 ± 0.45 nmol/cm^2/h | 8.7 ± 0.6 h | 13.89 ± 12.21 µmol/g | *FormuIa III (4) (key: *Indicates a flux enhancement greater than 2.) | ≥ 2.75 fold | -0.37 h⁻¹ |
